According to PubChem BioAssay (NCI):
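Interpolation was linear, between the two tested concentrations surrounding the appropriate level; five concentrations were tested over 48 hours in 96-well plates. TGI: concentration producing complete growth inhibition.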

What was measured:
Experiment in all cases: inhibition of tumour cell growth, NCI panel, 48 h
SF-539 CNS = test system: SF-539 CNS
HS 578T breast = test system: HS 578T breast
HOP-62 NSCLC = test system: HOP-62 NSCLC
RPMI-8226 leukemia = test system: RPMI-8226 leukemia
SK-MEL-28 melanoma = test system: SK-MEL-28 melanoma
MDA-MB-231 breast = test system: MDA-MB-231 breast
OVCAR-3 ovarian = test system: OVCAR-3 ovarian
SR leukemia = test system: SR leukemia
NCI-H522 lung = test system: NCI-H522 lung
U251 CNS = test system: U251 CNS
A549 NSCLC = test system: A549 NSCLC
SNB-75 CNS = test system: SNB-75 CNS
EKVX NSCLC = test system: EKVX NSCLC
K-562 leukemia = test system: K-562 leukemia
NCI-H460 lung = test system: NCI-H460 lung
HCC-2998 colon = test system: HCC-2998 colon
SF-295 CNS = test system: SF-295 CNS
IGROV1 ovarian = test system: IGROV1 ovarian
ACHN renal = test system: ACHN renal
TK-10 renal = test system: TK-10 renal
SNB-19 CNS = test system: SNB-19 CNS
MDA-N = test system: MDA-N
UO-31 renal = test system: UO-31 renal
CAKI-1 renal = test system: CAKI-1 renal
UACC-62 melanoma = test system: UACC-62 melanoma
SK-MEL-2 melanoma = test system: SK-MEL-2 melanoma
HCT-116 colon = test system: HCT-116 colon
SF-268 CNS = test system: SF-268 CNS
OVCAR-5 ovarian = test system: OVCAR-5 ovarian
NCI/ADR-RES ovarian = test system: NCI/ADR-RES ovarian
MDA-MB-435 = test system: MDA-MB-435
T-47D breast = test system: T-47D breast
CCRF-CEM leukemia = test system: CCRF-CEM leukemia
HT29 colon = test system: HT29 colon
DU-145 prostate = test system: DU-145 prostate
MALME-3M melanoma = test system: MALME-3M melanoma
LOX IMVI melanoma = test system: LOX IMVI melanoma
SW-620 colon = test system: SW-620 colon
786-0 renal = test system: 786-0 renal
COLO 205 colon = test system: COLO 205 colon
RXF 393 renal = test system: RXF 393 renal
OVCAR-4 ovarian = test system: OVCAR-4 ovarian
SK-MEL-5 melanoma = test system: SK-MEL-5 melanoma
A498 renal = test system: A498 renal
KM12 colon = test system: KM12 colon
HCT-15 colon = test system: HCT-15 colon
PC-3 prostate = test system: PC-3 prostate
MOLT-4 leukemia = test system: MOLT-4 leukemia
NCI-H226 lung = test system: NCI-H226 lung
SN12C renal = test system: SN12C renal
NCI-H23 lung = test system: NCI-H23 lung
HOP-92 NSCLC = test system: HOP-92 NSCLC
HL-60(TB) leukemia = test system: HL-60(TB) leukemia
M14 melanoma = test system: M14 melanoma
UACC-257 melanoma = test system: UACC-257 melanoma
MCF7 breast = test system: MCF7 breast
OVCAR-8 ovarian = test system: OVCAR-8 ovarian
SK-OV-3 ovarian = test system: SK-OV-3 ovarian

Measured: TGI

COc1ccc(/C=C2\CN(C)C/C(=C\c3ccc(OC)cc3)C2=O)cc1
not listed: UACC-257 melanoma | MCF7 breast | OVCAR-8 ovarian | SK-OV-3 ovarian
> 100 µM: all other assays above

O=C1c2ccccc2C(=O)N1CC1S(=O)(=O)OCCOS1(=O)=O
not listed: SK-MEL-2 melanoma | KM12 colon
> 100 µM: all other assays above
